Laboratory results published in patent US20230398130A1, “METHODS AND COMPOSITIONS FOR DIFFERENTIATING STEM CELLS” (Massachusetts Institute of Technology, priority 2020, published 2023).

What was measured:
ISC-enriched organoids [1] = test: Primary screen, 384-well 2.5-D organoid differentiation (ENR+CD, 6 days): basal lysozyme secretion (LYZ.NS); assay type: cell-based, murine; details: for Dose.FC.LYZ.NS / SSMD.LYZ.NS: primary screen; for Dose.FC.LYZ.NS: FC vs plate median; for Z.LYZ.NS: standard z score of FC; for SSMD.LYZ.NS: strictly standardized mean difference
Excerpt: (§1) High-throughput screening.

ISC-enriched organoids [2] = test: Primary screen, 384-well 2.5-D organoid differentiation (ENR+CD, 6 days): carbachol-induced lysozyme secretion (LYZ.S); assay type: cell-based, murine; details: primary screen; for Dose.FC.LYZ.S: FC vs plate median; for Z.LYZ.S: standard z score; for SSMD.LYZ.S: strictly standardized mean difference
Excerpt: as §1

ISC-enriched organoids [3] = test: Primary screen, 384-well 2.5-D organoid differentiation (ENR+CD, 6 days, Target Selective Inhibitor Library, vs whole-plate median): ATP (CellTiter-Glo 3D, CTG); details: for Dose.FC.CTG / SSMD.CTG: primary screen; for Dose.FC.CTG: FC vs plate median; for Z.CTG: standard z score of FC; for SSMD.CTG: strictly standardized mean difference
[4] = 1st of the 4 dose lines of the treatment (dose not given)
[5] = 2nd of the 4 dose lines of the treatment (dose not given)
[6] = 3rd of the 4 dose lines of the treatment (dose not given)
[7] = 4th of the 4 dose lines of the treatment (dose not given)

Row | SMILES | SSMD.LYZ.NS (ISC-enriched organoids [1]; [4]) | SSMD.LYZ.NS (ISC-enriched organoids [1]; [5]) | SSMD.LYZ.NS (ISC-enriched organoids [1]; [6]) | SSMD.LYZ.NS (ISC-enriched organoids [1]; [7]) | Z.LYZ.S (ISC-enriched organoids [2]; [4]) | Z.LYZ.S (ISC-enriched organoids [2]; [5]) | Z.LYZ.S (ISC-enriched organoids [2]; [6]) | Z.LYZ.S (ISC-enriched organoids [2]; [7]) | SSMD.LYZ.S (ISC-enriched organoids [2]; [4]) | SSMD.LYZ.S (ISC-enriched organoids [2]; [5]) | SSMD.LYZ.S (ISC-enriched organoids [2]; [6]) | SSMD.LYZ.S (ISC-enriched organoids [2]; [7]) | Z.CTG (ISC-enriched organoids [3]; Dose 0.08 uM) | Z.CTG (ISC-enriched organoids [3]; Dose 0.40 uM) | Z.CTG (ISC-enriched organoids [3]; Dose 2.00 uM) | Z.CTG (ISC-enriched organoids [3]; Dose 10.00 uM) | SSMD.CTG (ISC-enriched organoids [3]; [4]) | SSMD.CTG (ISC-enriched organoids [3]; [5]) | SSMD.CTG (ISC-enriched organoids [3]; [6]) | SSMD.CTG (ISC-enriched organoids [3]; [7]) | also measured
1 | COc1ccc(CNCc2cccc3ccccc23)cc1.Cl [ML133 HCl] | 0.282 | −0.131 | 0.740 | −0.152 | 0.404 | −0.118 | 0.565 | −0.089 | 0.324 | −0.129 | 0.368 | −0.088 | −0.023 | −0.360 | −0.591 | −0.096 | −0.026 | −0.437 | −0.560 | −0.133 | Dose.FC.LYZ.NS (ISC-enriched organoids [1]; Dose 0.08 uM): 0.030 log 2 fold change; Z.LYZ.NS (ISC-enriched organoids [1]; Dose 0.08 uM): 0.261; Dose.FC.LYZ.NS (ISC-enriched organoids [1]; Dose 0.40 uM): −0.013 log 2 fold change; Z.LYZ.NS (ISC-enriched organoids [1]; Dose 0.40 uM): −0.116; Dose.FC.LYZ.NS (ISC-enriched organoids [1]; Dose 2.00 uM): 0.073 log 2 fold change; Z.LYZ.NS (ISC-enriched organoids [1]; Dose 2.00 uM): 0.633; Dose.FC.LYZ.NS (ISC-enriched organoids [1]; Dose 10.00 uM): −0.018 log 2 fold change; Z.LYZ.NS (ISC-enriched organoids [1]; Dose 10.00 uM): −0.155; Dose.FC.LYZ.S (ISC-enriched organoids [2]; Dose 0.08 uM): 0.062 log 2 fold change; Dose.FC.LYZ.S (ISC-enriched organoids [2]; Dose 0.40 uM): −0.018 log 2 fold change; Dose.FC.LYZ.S (ISC-enriched organoids [2]; Dose 2.00 uM): 0.087 log 2 fold change; Dose.FC.LYZ.S (ISC-enriched organoids [2]; Dose 10.00 uM): −0.014 log 2 fold change; Dose.FC.CTG (ISC-enriched organoids [3]; Dose 0.08 uM): −0.009 log 2 fold change; Dose.FC.CTG (ISC-enriched organoids [3]; Dose 0.40 uM): −0.151 log 2 fold change; Dose.FC.CTG (ISC-enriched organoids [3]; Dose 2.00 uM): −0.247 log 2 fold change; Dose.FC.CTG (ISC-enriched organoids [3]; Dose 10.00 uM): −0.040 log 2 fold change
2 | CCCC(=O)Nc1cccc(NC(=O)c2ccccc2Br)c1 [ML161] | 0.117 | −0.239 | 0.354 | −0.421 | 0.113 | −0.173 | 0.158 | −0.429 | 0.096 | −0.148 | 0.152 | −0.282 | 0.205 | 0.067 | 0.157 | −0.084 | 0.278 | 0.087 | 0.229 | −0.107 | Dose.FC.LYZ.NS (ISC-enriched organoids [1]; Dose 0.08 uM): 0.018 log 2 fold change; Z.LYZ.NS (ISC-enriched organoids [1]; Dose 0.08 uM): 0.158; Dose.FC.LYZ.NS (ISC-enriched organoids [1]; Dose 0.40 uM): −0.027 log 2 fold change; Z.LYZ.NS (ISC-enriched organoids [1]; Dose 0.40 uM): −0.237; Dose.FC.LYZ.NS (ISC-enriched organoids [1]; Dose 2.00 uM): 0.037 log 2 fold change; Z.LYZ.NS (ISC-enriched organoids [1]; Dose 2.00 uM): 0.323; Dose.FC.LYZ.NS (ISC-enriched organoids [1]; Dose 10.00 uM): −0.057 log 2 fold change; Z.LYZ.NS (ISC-enriched organoids [1]; Dose 10.00 uM): −0.494; Dose.FC.LYZ.S (ISC-enriched organoids [2]; Dose 0.08 uM): 0.017 log 2 fold change; Dose.FC.LYZ.S (ISC-enriched organoids [2]; Dose 0.40 uM): −0.027 log 2 fold change; Dose.FC.LYZ.S (ISC-enriched organoids [2]; Dose 2.00 uM): 0.024 log 2 fold change; Dose.FC.LYZ.S (ISC-enriched organoids [2]; Dose 10.00 uM): −0.066 log 2 fold change; Dose.FC.CTG (ISC-enriched organoids [3]; Dose 0.08 uM): 0.086 log 2 fold change; Dose.FC.CTG (ISC-enriched organoids [3]; Dose 0.40 uM): 0.028 log 2 fold change; Dose.FC.CTG (ISC-enriched organoids [3]; Dose 2.00 uM): 0.066 log 2 fold change; Dose.FC.CTG (ISC-enriched organoids [3]; Dose 10.00 uM): −0.035 log 2 fold change
3 | COc1ccc(-c2cnc3c(-c4cccc5ncccc45)cnn3c2)cc1 [ML347] | 1.159 | 1.286 | 0.509 | −0.643 | 0.608 | 0.715 | 0.467 | −1.303 | 0.546 | 0.729 | 0.450 | −1.245 | 0.439 | 0.500 | 0.328 | −0.404 | 0.464 | 0.557 | 0.403 | −0.307 | Dose.FC.LYZ.NS (ISC-enriched organoids [1]; Dose 0.08 uM): 0.124 log 2 fold change; Z.LYZ.NS (ISC-enriched organoids [1]; Dose 0.08 uM): 1.079; Dose.FC.LYZ.NS (ISC-enriched organoids [1]; Dose 0.40 uM): 0.132 log 2 fold change; Z.LYZ.NS (ISC-enriched organoids [1]; Dose 0.40 uM): 1.150; Dose.FC.LYZ.NS (ISC-enriched organoids [1]; Dose 2.00 uM): 0.069 log 2 fold change; Z.LYZ.NS (ISC-enriched organoids [1]; Dose 2.00 uM): 0.600; Dose.FC.LYZ.NS (ISC-enriched organoids [1]; Dose 10.00 uM): −0.124 log 2 fold change; Z.LYZ.NS (ISC-enriched organoids [1]; Dose 10.00 uM): −1.078; Dose.FC.LYZ.S (ISC-enriched organoids [2]; Dose 0.08 uM): 0.094 log 2 fold change; Dose.FC.LYZ.S (ISC-enriched organoids [2]; Dose 0.40 uM): 0.111 log 2 fold change; Dose.FC.LYZ.S (ISC-enriched organoids [2]; Dose 2.00 uM): 0.072 log 2 fold change; Dose.FC.LYZ.S (ISC-enriched organoids [2]; Dose 10.00 uM): −0.202 log 2 fold change; Dose.FC.CTG (ISC-enriched organoids [3]; Dose 0.08 uM): 0.184 log 2 fold change; Dose.FC.CTG (ISC-enriched organoids [3]; Dose 0.40 uM): 0.209 log 2 fold change; Dose.FC.CTG (ISC-enriched organoids [3]; Dose 2.00 uM): 0.137 log 2 fold change; Dose.FC.CTG (ISC-enriched organoids [3]; Dose 10.00 uM): −0.169 log 2 fold change
4 | CC(C)C[C@H](NC(=O)CNC(=O)c1cc(Cl)ccc1Cl)B(O)O [MLN2238] | −1.766 | −1.837 | −1.787 | −2.223 | −2.478 | −2.317 | −2.280 | −2.394 | −1.588 | −1.620 | −1.733 | −1.739 | −3.952 | −2.637 | −2.944 | −4.205 | −2.218 | −0.972 | −1.669 | −1.891 | 
5 | O=C(O)c1ccc(Nc2ncc3c(n2)-c2ccc(Cl)cc2C(c2c(F)cccc2F)=NC3)cc1 [MLN8054] | 0.618 | 0.061 | −0.713 | −0.870 | 0.274 | 1.081 | −0.562 | −1.274 | 0.241 | 0.554 | −0.486 | −0.964 | 0.063 | 0.033 | −1.111 | −1.191 | 0.080 | 0.035 | −0.959 | −1.480 | 
6 | CCC(CC)(NC(=O)C(C)C)C(=O)N[C@@H](CCCN=C(N)N)C(=O)NC1(C(=O)NC(c2ccc(F)cc2)c2ccc(F)cc2)CCCC1 [MM-102] | −0.233 | −0.084 | 0.128 | −0.792 | −0.177 | −0.009 | −0.226 | −1.252 | −0.148 | −0.010 | −0.218 | −0.881 | −0.489 | −0.315 | −0.557 | −0.964 | −0.485 | −0.493 | −0.877 | −1.350 | Dose.FC.LYZ.NS (ISC-enriched organoids [1]; Dose 0.08 uM): −0.025 log 2 fold change; Z.LYZ.NS (ISC-enriched organoids [1]; Dose 0.08 uM): −0.220; Dose.FC.LYZ.NS (ISC-enriched organoids [1]; Dose 0.40 uM): −0.010 log 2 fold change; Z.LYZ.NS (ISC-enriched organoids [1]; Dose 0.40 uM): −0.090; Dose.FC.LYZ.NS (ISC-enriched organoids [1]; Dose 2.00 uM): 0.026 log 2 fold change; Z.LYZ.NS (ISC-enriched organoids [1]; Dose 2.00 uM): 0.230; Dose.FC.LYZ.NS (ISC-enriched organoids [1]; Dose 10.00 uM): −0.164 log 2 fold change; Z.LYZ.NS (ISC-enriched organoids [1]; Dose 10.00 uM): −1.424; Dose.FC.LYZ.S (ISC-enriched organoids [2]; Dose 0.08 uM): −0.027 log 2 fold change; Dose.FC.LYZ.S (ISC-enriched organoids [2]; Dose 0.40 uM): −0.001 log 2 fold change; Dose.FC.LYZ.S (ISC-enriched organoids [2]; Dose 2.00 uM): −0.035 log 2 fold change; Dose.FC.LYZ.S (ISC-enriched organoids [2]; Dose 10.00 uM): −0.194 log 2 fold change; Dose.FC.CTG (ISC-enriched organoids [3]; Dose 0.08 uM): −0.205 log 2 fold change; Dose.FC.CTG (ISC-enriched organoids [3]; Dose 0.40 uM): −0.132 log 2 fold change; Dose.FC.CTG (ISC-enriched organoids [3]; Dose 2.00 uM): −0.233 log 2 fold change; Dose.FC.CTG (ISC-enriched organoids [3]; Dose 10.00 uM): −0.403 log 2 fold change
7 | S=C=Nc1cccc(NC(=S)NCCCCNC(=S)Nc2cccc(N=C=S)c2)c1 [MRS 2578] |  |  |  |  |  |  |  |  |  |  |  |  | −0.339 | 0.146 | −0.381 | −0.544 |  |  |  |  | Dose.FC.LYZ.NS (ISC-enriched organoids [1]; Dose 0.08 uM): 0.116 log 2 fold change; Z.LYZ.NS (ISC-enriched organoids [1]; Dose 0.08 uM): 1.011; Dose.FC.LYZ.NS (ISC-enriched organoids [1]; Dose 0.40 uM): 0.036 log 2 fold change; Z.LYZ.NS (ISC-enriched organoids [1]; Dose 0.40 uM): 0.311; Dose.FC.LYZ.NS (ISC-enriched organoids [1]; Dose 2.00 uM): 0.031 log 2 fold change; Z.LYZ.NS (ISC-enriched organoids [1]; Dose 2.00 uM): 0.270; Dose.FC.LYZ.NS (ISC-enriched organoids [1]; Dose 10.00 uM): 0.032 log 2 fold change; Z.LYZ.NS (ISC-enriched organoids [1]; Dose 10.00 uM): 0.276; Dose.FC.LYZ.S (ISC-enriched organoids [2]; Dose 0.08 uM): 0.095 log 2 fold change; Dose.FC.LYZ.S (ISC-enriched organoids [2]; Dose 0.40 uM): 0.067 log 2 fold change; Dose.FC.LYZ.S (ISC-enriched organoids [2]; Dose 2.00 uM): 0.023 log 2 fold change; Dose.FC.LYZ.S (ISC-enriched organoids [2]; Dose 10.00 uM): 0.013 log 2 fold change; Dose.FC.CTG (ISC-enriched organoids [3]; Dose 0.08 uM): −0.142 log 2 fold change; Dose.FC.CTG (ISC-enriched organoids [3]; Dose 0.40 uM): 0.061 log 2 fold change; Dose.FC.CTG (ISC-enriched organoids [3]; Dose 2.00 uM): −0.159 log 2 fold change; Dose.FC.CTG (ISC-enriched organoids [3]; Dose 10.00 uM): −0.228 log 2 fold change
